For seven molecules, inhibition and Papp A→B results are on record in EP4768479A1 (Hubei Bio-Pharmaceutical Industrial Technological Institute …, priority 2023, dated 2025).

What all share (format): in vitro ADME
One data set addresses T1, CYP1A2 (Homo sapiens, UniProt P05177).
T1 construct: Mixed human liver microsomes; from tissue; host or cells: mixed (pooled) human liver microsomes
T1 sequence (P05177 1-516): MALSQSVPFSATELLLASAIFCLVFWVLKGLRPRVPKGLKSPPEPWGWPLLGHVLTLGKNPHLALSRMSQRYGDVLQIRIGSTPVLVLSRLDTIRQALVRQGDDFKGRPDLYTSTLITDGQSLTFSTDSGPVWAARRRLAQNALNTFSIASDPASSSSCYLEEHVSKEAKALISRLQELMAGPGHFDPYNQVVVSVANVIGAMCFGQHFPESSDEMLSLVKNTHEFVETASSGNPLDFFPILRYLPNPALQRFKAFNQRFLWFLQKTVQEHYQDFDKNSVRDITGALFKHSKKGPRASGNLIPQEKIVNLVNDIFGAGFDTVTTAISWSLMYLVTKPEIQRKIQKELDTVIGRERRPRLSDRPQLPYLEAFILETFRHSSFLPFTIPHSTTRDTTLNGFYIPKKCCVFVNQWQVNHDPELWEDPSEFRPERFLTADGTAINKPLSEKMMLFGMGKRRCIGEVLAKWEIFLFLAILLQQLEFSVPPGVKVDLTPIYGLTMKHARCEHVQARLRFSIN
The experiment in a line: CYP inhibition assay in mixed human liver microsomes. Particulars: read-out: Inhibition Rate % CYP1A2. How it is done:
(§1) The inhibitory effects of the compounds on six enzymes, i.e., CYP1A2, CYP2C9, CYP2C19, CYP2D6, CYP3A4 (midazolam), and CYP2B6, were evaluated at a concentration of 10 µM. Mixed human liver microsomes, which were previously stored in a -80°C refrigerator before use, were taken out and thawed in a water bath at 37°C before use, and placed on ice for further operation. 100 µL of microsome working solution was taken, and added with 2 µL of compound or positive inhibitor working solution. 2 µL of solvent was added to the solvent control. The mixture was pre-incubated in a water bath at 37°C for 10 minutes. After the preincubation, 98 µL of NADPH regeneration solution was added to all samples to initiate the reaction. Then, the samples were put back into the water bath and incubated for a period of time. The reaction was quenched with 200 µL of stop solution. The plate was centrifuged at 3,220 g for 10 minutes, 100 µL of supernatant was transferred, and 100 µL of water was added and mixed well to the assay plate for LC/MS/MS analysis. [Table 2] CYP450 Inhibition Results of Compounds

The next data set concerns the target T2, CYP2B6 (Homo sapiens, UniProt P20813).
T2 construct: Mixed human liver microsomes; from tissue; host or cells: mixed (pooled) human liver microsomes
T2 sequence (P20813 1-491): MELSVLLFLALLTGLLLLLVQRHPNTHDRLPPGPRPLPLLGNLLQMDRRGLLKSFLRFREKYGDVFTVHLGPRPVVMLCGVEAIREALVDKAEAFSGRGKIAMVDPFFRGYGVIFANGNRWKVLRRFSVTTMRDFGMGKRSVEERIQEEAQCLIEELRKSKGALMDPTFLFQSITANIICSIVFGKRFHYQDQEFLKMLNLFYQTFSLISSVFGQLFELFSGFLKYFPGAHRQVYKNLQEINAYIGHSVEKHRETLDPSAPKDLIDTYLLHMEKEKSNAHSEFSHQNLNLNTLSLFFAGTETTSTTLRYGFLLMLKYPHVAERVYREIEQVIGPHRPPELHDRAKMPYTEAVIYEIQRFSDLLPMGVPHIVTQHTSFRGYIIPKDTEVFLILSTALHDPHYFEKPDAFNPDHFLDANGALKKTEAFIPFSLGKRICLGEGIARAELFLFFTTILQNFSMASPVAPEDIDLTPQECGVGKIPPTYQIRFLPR
Described as above. Particulars: read-out: Inhibition Rate % CYP2B6. How it is done:
as §1

The next data set concerns the target T3, CYP2C19 (Homo sapiens, UniProt P33261).
T3 construct: Mixed human liver microsomes; from tissue; host or cells: mixed (pooled) human liver microsomes
Described as above. Particulars: read-out: Inhibition Rate % CYP2C19. As to the method: as §1

For another data set, the target named is T4, CYP2C9 (Homo sapiens, UniProt P11712).
T4 construct: Mixed human liver microsomes; from tissue; host or cells: mixed (pooled) human liver microsomes
T4 sequence (P11712 whole entry): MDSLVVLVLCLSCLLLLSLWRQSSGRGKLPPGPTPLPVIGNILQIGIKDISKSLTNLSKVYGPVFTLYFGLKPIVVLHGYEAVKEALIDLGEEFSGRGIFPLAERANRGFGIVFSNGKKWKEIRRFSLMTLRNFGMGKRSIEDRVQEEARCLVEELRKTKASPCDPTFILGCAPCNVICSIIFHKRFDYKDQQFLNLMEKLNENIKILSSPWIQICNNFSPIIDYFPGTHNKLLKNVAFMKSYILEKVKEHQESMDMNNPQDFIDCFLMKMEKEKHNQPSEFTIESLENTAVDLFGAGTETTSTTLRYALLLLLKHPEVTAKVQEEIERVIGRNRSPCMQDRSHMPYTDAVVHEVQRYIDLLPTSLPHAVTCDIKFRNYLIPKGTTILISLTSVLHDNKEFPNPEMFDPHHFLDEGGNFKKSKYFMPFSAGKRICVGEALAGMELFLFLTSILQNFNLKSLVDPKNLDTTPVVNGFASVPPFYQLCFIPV
Described as above. Particulars: read-out: Inhibition Rate % CYP2C9. As to the method:
as §1

In another data set the target is T5, CYP2D6 (Homo sapiens, UniProt P10635).
T5 construct: Mixed human liver microsomes; from tissue; host or cells: mixed (pooled) human liver microsomes
T5 sequence (P10635 whole entry): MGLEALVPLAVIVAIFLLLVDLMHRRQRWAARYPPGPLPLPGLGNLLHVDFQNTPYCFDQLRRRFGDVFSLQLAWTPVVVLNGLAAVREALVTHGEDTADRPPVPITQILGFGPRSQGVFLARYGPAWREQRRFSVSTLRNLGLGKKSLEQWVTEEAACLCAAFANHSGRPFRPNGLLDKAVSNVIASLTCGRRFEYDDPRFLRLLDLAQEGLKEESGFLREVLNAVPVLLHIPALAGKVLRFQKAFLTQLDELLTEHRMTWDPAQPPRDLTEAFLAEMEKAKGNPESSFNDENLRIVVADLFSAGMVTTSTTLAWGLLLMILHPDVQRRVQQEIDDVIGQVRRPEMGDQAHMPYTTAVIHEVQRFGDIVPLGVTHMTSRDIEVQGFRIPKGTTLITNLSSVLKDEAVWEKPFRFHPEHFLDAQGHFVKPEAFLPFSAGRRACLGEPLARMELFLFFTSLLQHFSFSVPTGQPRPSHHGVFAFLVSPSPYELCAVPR
Described as above. Particulars: read-out: Inhibition Rate % CYP2D6. As to the method: as §1

In another data set the target is T6, CYP3A4 (Homo sapiens, UniProt P08684).
T6 construct: Mixed human liver microsomes; from tissue; host or cells: mixed (pooled) human liver microsomes
T6 sequence (P08684 whole entry): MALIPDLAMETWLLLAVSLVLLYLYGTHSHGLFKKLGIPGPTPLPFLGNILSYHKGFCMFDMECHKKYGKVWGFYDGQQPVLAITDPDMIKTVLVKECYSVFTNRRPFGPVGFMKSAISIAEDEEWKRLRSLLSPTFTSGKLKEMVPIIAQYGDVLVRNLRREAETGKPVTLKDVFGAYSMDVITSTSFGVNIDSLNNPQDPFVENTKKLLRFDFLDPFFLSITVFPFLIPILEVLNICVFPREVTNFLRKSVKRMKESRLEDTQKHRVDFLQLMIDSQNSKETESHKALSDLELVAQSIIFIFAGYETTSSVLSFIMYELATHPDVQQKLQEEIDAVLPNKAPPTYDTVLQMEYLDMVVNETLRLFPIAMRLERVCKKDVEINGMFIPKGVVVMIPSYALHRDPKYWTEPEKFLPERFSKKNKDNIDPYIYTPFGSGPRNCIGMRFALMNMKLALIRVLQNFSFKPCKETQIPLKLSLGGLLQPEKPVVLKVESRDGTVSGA
The description is as above. Particulars: probe midazolam, read-out: Inhibition Rate % CYP3A4 (midazolam). As to the method: as §1

Data set [1] in a line: Bidirectional permeability study in Caco-2 cells. Particulars: human, pH 7.4, Caco-2, 2.00 µM, A to B. How it is done:
Caco-2 cells were inoculated onto […] (PET) in 96-well inserted plates at a rate of 1×10^5 cells/cm^2, and the medium was changed every 4 to 5 days until day 21 to 28, to form a fused cell monolayer. The transport buffer in the assay was HBSS and 10.0 mM HEPES, with a pH of 7.40±0.05. The test compounds were subjected to a bidirectional test at 2.00 µM in the presence and absence of GF120918 (10.0 µM). Digoxin was subjected to a bidirectional test at 10.0 µM in the presence and absence of GF120918 (10.0 µM), while Nadolol and Metoprolol were subjected to a test from direction A to direction B at 2.00 µM in the absence of GF120918 (10.0 µM). The above tests were performed in duplicate. The final concentration of DMSO was adjusted to be lower than 1%. The plate was incubated in a CO2 incubator at 37°C±1°C for 2 hours, and 5% CO2 was added under saturated humidity without shaking. All the samples, after being mixed with acetonitrile containing internal standard, were centrifuged at 3,200 g for 10 minutes. For Nadolol and Metoprolol, 200 µL of supernatant was diluted with 600 µL of distilled water for LC-MS/MS analysis. For Digoxin and test compounds, 200 µL of supernatant was diluted with 200 µL of distilled water for LC-MS/MS analysis. The concentrations of the test compounds and control compounds in the starting solution, the donor solution, and the acceptor solution were quantified by LC-MS/MS based on a peak area ratio of the analyte to the internal standard.
After the transport assay, the integrity of the Caco-2 cell monolayer was determined using Lucifer Yellow Exclusion Assay. [Table 4] Bidirectional Permeability of Compounds in Caco-2 Cells
(Caco-2 cells form a polarised layer with tight junctions and transporters.)

Each structure is given as a SMILES string.

T3 sequence (P33261 whole entry): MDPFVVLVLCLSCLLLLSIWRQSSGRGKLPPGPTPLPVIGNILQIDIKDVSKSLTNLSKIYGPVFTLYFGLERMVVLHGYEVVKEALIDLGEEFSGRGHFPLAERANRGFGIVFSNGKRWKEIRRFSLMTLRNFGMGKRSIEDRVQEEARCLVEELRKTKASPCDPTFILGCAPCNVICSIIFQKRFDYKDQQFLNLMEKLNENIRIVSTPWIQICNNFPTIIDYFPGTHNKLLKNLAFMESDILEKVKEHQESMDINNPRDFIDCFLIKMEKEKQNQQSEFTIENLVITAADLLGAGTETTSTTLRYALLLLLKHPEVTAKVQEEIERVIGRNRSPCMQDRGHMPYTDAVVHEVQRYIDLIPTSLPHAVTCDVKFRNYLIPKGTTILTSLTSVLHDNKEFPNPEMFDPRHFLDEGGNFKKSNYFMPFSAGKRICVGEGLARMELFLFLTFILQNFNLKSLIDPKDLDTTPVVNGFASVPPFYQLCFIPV

As for `COC(=O)NS(=O)(=O)c1sc(CC(C)C)c(C)c1-c1ccc(Cn2ccnc2C(F)(F)F)cc1` [Compound I-9, Methyl ((5-isobutyl-4-methyl-3-(4-((2-(trifluoromethyl)-1H-imidazol-1-yl)methyl)phenyl)thiophen-2-yl)sulfonyl)carbamate], the inhibition – broadly, the share of the control response that was lost under treatment – at 10 µM was 0% on CYP1A2; 22.2% on CYP2B6; 29.8% on CYP2C19; 18.6% on CYP2C9; 0% on CYP2D6; 0% on CYP3A4. In data set [1], the apical-to-basolateral permeability (Papp A→B) (in general, the apparent permeability from the apical to the basolateral side of a cell layer) at 2 h, 2 µM is 2.29 ×10⁻⁶ cm/s.

`COC(=O)NS(=O)(=O)c1sc(CC(C)C)c(C)c1-c1ccc(Cn2ccnc2C(C)(C)O)cc1` [Compound I-19, Methyl ((3-(4-((2-(2-hydroxypropan-2-yl)-1H-imidazol-1-yl)methyl)phenyl)-5-isobutyl-4-methylthiophen-2-yl)sulfonyl)carbamate]: the inhibition at 10 µM at CYP1A2 is 0%; at CYP2B6, 3.8%; on CYP2C19, 0%; on CYP2C9 it was 0%; at CYP2D6, 0%; at CYP3A4, 7.6%. Besides, in data set [1], the Papp A→B at 2 h, 2 µM amounted to 3.24 ×10⁻⁶ cm/s.

As to `Cc1c(CC(C)C)sc(S(=O)(=O)NC(=O)OCCO)c1-c1ccc(Cn2ccnc2C(F)(F)F)cc1` [Compound I-13, 2-hydroxyethyl ((5-isobutyl-4-methyl-3-(4-((2-(trifluoromethyl)-1H-imidazol-1-yl)methyl)phenyl)thiophen-2-yl)sulfonyl)carbamate], the inhibition at 10 µM was determined as 3.5% on CYP1A2; 11.3% on CYP2B6; 17.3% on CYP2C19; 12.2% at CYP2C9; 0% on CYP2D6; 9.6% on CYP3A4. This molecule showed a Papp A→B at 2 h, 2 µM in data set [1] of 1.98 ×10⁻⁶ cm/s.

Consider `Cc1c(CC(C)C)sc(S(=O)(=O)NC(=O)OCC(C)(C)O)c1-c1ccc(Cn2ccnc2C(F)(F)F)cc1` [Compound I-10, 2-hydroxy-2-methylpropyl ((5-isobutyl-4-methyl-3-(4-((2-(trifluoromethyl)-1H-imidazol-1-yl)methyl)phenyl)thiophen-2-yl)sulfonyl)carbamate], for which the inhibition at 10 µM on CYP1A2 came out at 0%; on CYP2B6 it was 13.7%; at CYP2C19, 7.4%; on CYP2C9, 5.3%; at CYP2D6, 0%; at CYP3A4, 0%. This molecule came in with a Papp A→B at 2 h, 2 µM in data set [1] of 2.63 ×10⁻⁶ cm/s.

On to `COC(=O)NS(=O)(=O)c1sc(CC(C)C)c(C)c1-c1ccc(Cn2ccnc2Cl)c(F)c1` [Compound I-14, Methyl ((3-(4-((2-chloro-1H-imidazol-1-yl)methyl)-3-fluorophenyl)-5-isobutyl-4-methylthiophen-2-yl)sulfonyl)carbamate], for which the inhibition at 10 µM at CYP1A2 is 5.6%; on CYP2B6, 4.3%; on CYP2C19, 11.9%; on CYP2C9 it was 24.8%; on CYP2D6 it was 2.1%; on CYP3A4, 14%. The same molecule came in with a Papp A→B at 2 h, 2 µM in data set [1] of 3.73 ×10⁻⁶ cm/s.

For the molecule `Cc1c(CC(C)C)sc(S(=O)(=O)Nc2ncccn2)c1-c1ccc(Cn2ccnc2Cl)cc1` [Compound I-23, 3-(4-((2-chloro-1H-imidazol-1-yl)methyl)phenyl)-5-isobutyl-4-methyl-N-(pyrimidin-2-yl)thiophene-2-sulfonamide], the inhibition at 10 µM came to 8.3% at CYP1A2; 7.6% at CYP2B6; 15.4% on CYP2C19; 20.5% at CYP2C9; 0% on CYP2D6; 0% on CYP3A4. The same molecule registered an apparent permeability from apical to basolateral (Papp A→B) at 2 h, 2 µM in data set [1] of 5.22 ×10⁻⁶ cm/s.

Consider `CCCCOC(=O)NS(=O)(=O)c1sc(CC(C)C)cc1-c1ccc(Cn2ccnc2)cc1` [Control Compound I, reference compound], for which the inhibition at 10 µM at CYP1A2 turned out to be 95.4%; at CYP2B6, 63.2%; at CYP2C19, 100%; on CYP2C9, 100%; on CYP2D6, 86.5%; at CYP3A4, 92.6%. The molecule also came in with a Papp A→B at 2 h, 2 µM in data set [1] of 0.381 ×10⁻⁶ cm/s.
